Columns and labels:
Format in all cases: in vivo
[1] = system: barnyardgrass (Echinochloa crus-galli); test: Test A pre-/postemergence plant response
In short: (§1)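 Both pre- and postemergence treatments are applied simultaneously, using chemicals formulated in a non-phytotoxic solvent mixture with surfactant. Postemergence plants are 2–10 cm high with one to two leaves. After approximately ten days in a greenhouse, injury is scored visually from 0 (none) to 100 (complete control) relative to untreated plants.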

corn (Zea mays) = test: Test A pre-/postemergence plant response
In short: as §1

[2] = system: giant foxtail (Setaria faberii); test: Test A pre-/postemergence plant response
In short: as §1

[3] = system: large crabgrass (Digitaria sanguinalis); test: Test A pre-/postemergence plant response
In short: as §1

[4] = system: morningglory (Ipomoea spp.); test: Test A pre-/postemergence plant response
In short: as §1

[5] = system: pigweed (Amaranthus retroflexus); test: Test A pre-/postemergence plant response
In short: as §1

[6] = system: velvetleaf (Abutilon theophrasti); test: Test A pre-/postemergence plant response
In short: as §1

[7] = system: wheat (Triticum aestivum); test: Test A pre-/postemergence plant response
In short: as §1

[8] = system: cocklebur (Xanthium strumarium); test: Test B pre-/postemergence plant response
In short: (§2)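 Seeds were sown in loam soil/sand blend and treated preemergence with compound in non-phytotoxic solvent mixture containing surfactant; postemergence sprays, same formulation, went onto plants 2 to 18 cm (1- to 4-leaf stage) in peat-based planting medium. Greenhouse 13 to 15 days, then visual rating versus untreated controls, 0 (no effect) to 100 (complete control).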

[9] = system: morningglory (Ipomoea coccinea); test: Test B pre-/postemergence plant response
In short: as §2

soybean (Glycine max) = test: Test B pre-/postemergence plant response
In short: as §2

[10] = system: wheat (Triticum aestivum); test: Test B pre-/postemergence plant response
In short: as §2

[11] = Postemergence, 125 g ai/ha, visual injury, 0 to 100 scale (0 no effect, 100 complete control), approx. ten days
[12] = Postemergence, 500 g ai/ha, 0 to 100 scale, 0 = no effect, 100 = complete control, approx. ten days
[13] = Preemergence, 125 g ai/ha, 0 to 100 scale, 0 = no effect, 100 = complete control
[14] = Preemergence, 500 g ai/ha, visual injury, 0 to 100 scale (0 no effect, 100 complete control), approx. ten days
[15] = 31 g ai/ha, postemergence, scale 0 to 100, 0 is no effect, 100 is complete control
[16] = 250 g ai/ha, Preemergence, 0 to 100 scale
[17] = Postemergence, 62 g ai/ha, scale 0 (no effect) to 100 (complete control), 13 to 15 days
[18] = Postemergence, 125 g ai/ha, visual rating after 13 to 15 days, scale 0 (no effect) to 100 (complete control)
[19] = Postemergence, 250 g ai/ha, scale 0 to 100 (0 no effect, 100 complete control)
[20] = Preemergence, 31 g ai/ha, scale 0 to 100 (0 no effect, 100 complete control)
[21] = Preemergence, 62 g ai/ha, scale 0 to 100, 0 no effect, 100 complete control
[22] = Preemergence, 125 g ai/ha, 0 to 100 scale
[23] = Preemergence, 125 g ai/ha, scale 0 to 100, 0 no effect, 100 complete control

Structure (SMILES): Cc1ccc(F)c(-n2c(-c3ccccc3)ncc(C(=O)C3=C(O)CCCC3=O)c2=O)c1 [Compound 51]
- Barnyardgrass plant response rating [1, 11]: 90
- Plant response rating, Barnyardgrass [1, 12]: 90
- Plant response rating, Barnyardgrass [1, 13]: 10
- Plant response rating, Barnyardgrass [1, 14]: 90
- Corn plant response rating (corn (Zea mays); [11]): 0
- Plant response rating, Corn (corn (Zea mays); [12]): 80
- Plant response rating, Corn (corn (Zea mays); [13]): 0
- Plant response rating, Corn (corn (Zea mays); [14]): 0
- Foxtail, Giant plant response rating [2, 11]: 90
- Plant response rating, Foxtail, Giant [2, 12]: 90
- Plant response rating, Foxtail, Giant [2, 13]: 30
- Plant response rating, Foxtail, Giant [2, 14]: 100
- Crabgrass, Large plant response rating [3, 11]: 90
- Plant response rating, Crabgrass, Large [3, 12]: 100
- Plant response rating, Crabgrass, Large [3, 13]: 30
- Plant response rating, Crabgrass, Large [3, 14]: 100
- Morningglory plant response rating [4, 11]: 100
- Plant response rating, Morningglory [4, 12]: 100
- Plant response rating, Morningglory [4, 14]: 90
- Pigweed plant response rating [5, 11]: 100
- Plant response rating, Pigweed [5, 12]: 100
- Plant response rating, Pigweed [5, 13]: 90
- Plant response rating, Pigweed [5, 14]: 100
- Velvetleaf plant response rating [6, 11]: 100
- Plant response rating, Velvetleaf [6, 12]: 100
- Plant response rating, Velvetleaf [6, 13]: 70
- Plant response rating, Velvetleaf [6, 14]: 90
- Wheat plant response rating [7, 11]: 0
- Plant response rating, Wheat [7, 12]: 0
- Plant response rating, Wheat [7, 13]: 0
- Plant response rating, Wheat [7, 14]: 0
- Plant response rating, Cocklebur [8, 15]: 85
- Plant response rating, Cocklebur [8, 16]: 75
- Plant response rating, Cocklebur [8, 17]: 85
- Plant response rating, Cocklebur [8, 18]: 90
- Plant response rating, Cocklebur [8, 19]: 90
- Plant response rating, Cocklebur [8, 20]: 0
- Plant response rating, Cocklebur [8, 21]: 0
- Cocklebur plant response rating [8, 22]: 20
- Plant response rating, Morningglory [9, 15]: 75
- Plant response rating, Morningglory [9, 16]: 70
- Plant response rating, Morningglory [9, 17]: 80
- Plant response rating, Morningglory [9, 18]: 90
- Plant response rating, Morningglory [9, 19]: 100
- Plant response rating, Morningglory [9, 20]: 0
- Plant response rating, Morningglory [9, 21]: 20
- Morningglory plant response rating [9, 22]: 20
- Plant response rating, Soybean (soybean (Glycine max); [15]): 85
- Plant response rating, Soybean (soybean (Glycine max); [16]): 85
- Plant response rating, Soybean (soybean (Glycine max); [17]): 90
- Plant response rating, Soybean (soybean (Glycine max); [18]): 95
- Plant response rating, Soybean (soybean (Glycine max); [19]): 95
- Plant response rating, Soybean (soybean (Glycine max); [20]): 0
- Soybean plant response rating (soybean (Glycine max); [22]): 80
- Plant response rating, Wheat [10, 15]: 5
- Plant response rating, Wheat [10, 16]: 10
- Plant response rating, Wheat [10, 17]: 10
- Plant response rating, Wheat [10, 18]: 10
- Plant response rating, Wheat [10, 19]: 30
- Plant response rating, Wheat [10, 20]: 0
- Wheat plant response rating [10, 22]: 0

Structure (SMILES): Cc1ccc(Cl)cc1-n1c(-c2ccccc2)ncc(C(=O)C2=C(O)CCCC2=O)c1=O [Compound 52]
- Barnyardgrass plant response rating [1, 11]: 90
- Plant response rating, Barnyardgrass [1, 12]: 90
- Plant response rating, Barnyardgrass [1, 13]: 40
- Plant response rating, Barnyardgrass [1, 14]: 100
- Corn plant response rating (corn (Zea mays); [11]): 0
- Plant response rating, Corn (corn (Zea mays); [12]): 70
- Plant response rating, Corn (corn (Zea mays); [13]): 0
- Plant response rating, Corn (corn (Zea mays); [14]): 10
- Foxtail, Giant plant response rating [2, 11]: 90
- Plant response rating, Foxtail, Giant [2, 12]: 100
- Plant response rating, Foxtail, Giant [2, 13]: 80
- Plant response rating, Foxtail, Giant [2, 14]: 100
- Crabgrass, Large plant response rating [3, 11]: 90
- Plant response rating, Crabgrass, Large [3, 12]: 100
- Plant response rating, Crabgrass, Large [3, 13]: 90
- Plant response rating, Crabgrass, Large [3, 14]: 100
- Morningglory plant response rating [4, 11]: 100
- Plant response rating, Morningglory [4, 12]: 100
- Plant response rating, Morningglory [4, 13]: 30
- Plant response rating, Morningglory [4, 14]: 90
- Pigweed plant response rating [5, 11]: 90
- Plant response rating, Pigweed [5, 12]: 100
- Plant response rating, Pigweed [5, 13]: 100
- Plant response rating, Pigweed [5, 14]: 100
- Velvetleaf plant response rating [6, 11]: 100
- Plant response rating, Velvetleaf [6, 12]: 100
- Plant response rating, Velvetleaf [6, 13]: 100
- Plant response rating, Velvetleaf [6, 14]: 100
- Wheat plant response rating [7, 11]: 0
- Plant response rating, Wheat [7, 12]: 40
- Plant response rating, Wheat [7, 13]: 0
- Plant response rating, Wheat [7, 14]: 0
- Plant response rating, Cocklebur [8, 15]: 75
- Plant response rating, Cocklebur [8, 16]: 75
- Plant response rating, Cocklebur [8, 17]: 85
- Plant response rating, Cocklebur [8, 18]: 85
- Plant response rating, Cocklebur [8, 19]: 85
- Plant response rating, Cocklebur [8, 20]: 0
- Plant response rating, Cocklebur [8, 21]: 0
- Plant response rating, Cocklebur [8, 23]: 10
- Plant response rating, Morningglory [9, 15]: 10
- Plant response rating, Morningglory [9, 16]: 55
- Plant response rating, Morningglory [9, 17]: 45
- Plant response rating, Morningglory [9, 18]: 75
- Plant response rating, Morningglory [9, 19]: 85
- Plant response rating, Morningglory [9, 20]: 0
- Plant response rating, Morningglory [9, 21]: 0
- Plant response rating, Morningglory [9, 23]: 45
- Plant response rating, Soybean (soybean (Glycine max); [15]): 80
- Plant response rating, Soybean (soybean (Glycine max); [16]): 80
- Plant response rating, Soybean (soybean (Glycine max); [17]): 95
- Plant response rating, Soybean (soybean (Glycine max); [18]): 95
- Plant response rating, Soybean (soybean (Glycine max); [19]): 98
- Plant response rating, Soybean (soybean (Glycine max); [20]): 0
- Plant response rating, Soybean (soybean (Glycine max); [21]): 0
- Plant response rating, Soybean (soybean (Glycine max); [23]): 55
- Plant response rating, Wheat [10, 15]: 15
- Plant response rating, Wheat [10, 16]: 0
- Plant response rating, Wheat [10, 17]: 25
- Plant response rating, Wheat [10, 18]: 35
- Plant response rating, Wheat [10, 19]: 35
- Plant response rating, Wheat [10, 20]: 0
- Plant response rating, Wheat [10, 21]: 0
- Plant response rating, Wheat [10, 23]: 0

Structure (SMILES): Cc1cccc(-n2c(-c3ccccc3)ncc(C(=O)C3=C(O)CCCC3=O)c2=O)c1F [Compound 58]
- Barnyardgrass plant response rating [1, 11]: 50
- Plant response rating, Barnyardgrass [1, 12]: 90
- Plant response rating, Barnyardgrass [1, 13]: 30
- Plant response rating, Barnyardgrass [1, 14]: 90
- Corn plant response rating (corn (Zea mays); [11]): 0
- Plant response rating, Corn (corn (Zea mays); [12]): 20
- Plant response rating, Corn (corn (Zea mays); [13]): 0
- Plant response rating, Corn (corn (Zea mays); [14]): 0
- Foxtail, Giant plant response rating [2, 11]: 70
- Plant response rating, Foxtail, Giant [2, 12]: 90
- Plant response rating, Foxtail, Giant [2, 13]: 50
- Plant response rating, Foxtail, Giant [2, 14]: 80
- Crabgrass, Large plant response rating [3, 11]: 80
- Plant response rating, Crabgrass, Large [3, 12]: 90
- Plant response rating, Crabgrass, Large [3, 13]: 70
- Plant response rating, Crabgrass, Large [3, 14]: 90
- Morningglory plant response rating [4, 11]: 80
- Plant response rating, Morningglory [4, 12]: 100
- Plant response rating, Morningglory [4, 14]: 100
- Pigweed plant response rating [5, 11]: 100
- Plant response rating, Pigweed [5, 12]: 100
- Plant response rating, Pigweed [5, 13]: 70
- Plant response rating, Pigweed [5, 14]: 100
- Velvetleaf plant response rating [6, 11]: 100
- Plant response rating, Velvetleaf [6, 12]: 100
- Plant response rating, Velvetleaf [6, 13]: 70
- Plant response rating, Velvetleaf [6, 14]: 100
- Wheat plant response rating [7, 11]: 0
- Plant response rating, Wheat [7, 12]: 0
- Plant response rating, Wheat [7, 13]: 0
- Plant response rating, Wheat [7, 14]: 0
- Plant response rating, Cocklebur [8, 15]: 85
- Plant response rating, Cocklebur [8, 16]: 65
- Plant response rating, Cocklebur [8, 17]: 85
- Plant response rating, Cocklebur [8, 18]: 85
- Plant response rating, Cocklebur [8, 19]: 90
- Plant response rating, Cocklebur [8, 20]: 0
- Plant response rating, Cocklebur [8, 21]: 0
- Plant response rating, Cocklebur [8, 23]: 10
- Plant response rating, Morningglory [9, 15]: 65
- Plant response rating, Morningglory [9, 17]: 80
- Plant response rating, Morningglory [9, 18]: 90
- Plant response rating, Morningglory [9, 19]: 90
- Plant response rating, Morningglory [9, 20]: 0
- Plant response rating, Morningglory [9, 21]: 0
- Plant response rating, Morningglory [9, 23]: 55
- Plant response rating, Soybean (soybean (Glycine max); [15]): 85
- Plant response rating, Soybean (soybean (Glycine max); [17]): 85
- Plant response rating, Soybean (soybean (Glycine max); [18]): 95
- Plant response rating, Soybean (soybean (Glycine max); [19]): 95
- Plant response rating, Soybean (soybean (Glycine max); [20]): 10
- Plant response rating, Soybean (soybean (Glycine max); [23]): 85
- Plant response rating, Wheat [10, 15]: 0
- Plant response rating, Wheat [10, 17]: 0
- Plant response rating, Wheat [10, 18]: 0
- Plant response rating, Wheat [10, 19]: 0
- Plant response rating, Wheat [10, 20]: 0
- Plant response rating, Wheat [10, 21]: 0
- Plant response rating, Wheat [10, 23]: 0

— patent publication US8952024B2, “Herbicidal pyrimidone derivatives” (E I du Pont de Nemours and Company, priority 2009, dated 2015)
